According to patent publication US9284272B2, “Inhibitors of histone methyltransferase G9a” (AbbVie Inc., priority 2014, dated 2016):
Where “and” joins values, the source holds several entries; their conditions need not be identical. Equal entries are not always repeated. Where two headings read alike, the source gives them in different places.

Legend:
[1] = Cytotoxicity, CellTiter Glo; format: cell-based; conditions: A-201 cells, 12-day proliferation, neural crest derived lines
[2] = Cytotoxicity, CellTiter Glo; format: cell-based; conditions: human, G-401 cells, 7-day proliferation, neural crest derived lines
[3] = Cytotoxicity, CellTiter Glo; format: cell-based; conditions: human, KMS11 cells, 5-day proliferation
[4] = Cytotoxicity, CellTiter Glo; format: cell-based; conditions: human, HL-60 cells, 5-day proliferation
[5] = Cytotoxicity, CellTiter Glo; format: cell-based; conditions: human, PA-1 cells, 7-day proliferation, neural crest derived lines
H3K9me2 = assay: Cellular immunostaining (In-Cell Western), H3K9Me2 antibody immunofluorescence in PC3 cells; format: cell-based, human; conditions: for H3K9me2 % inhibition, single well of triplicate / inhibition at 0.03 µM / inhibition at 0.1 µM / inhibition at 0.3 µM / inhibition at 1 µM / inhibition at 3 µM: 72 hours; for inhibition at 0.03 µM / inhibition at 0.1 µM / inhibition at 0.3 µM / inhibition at 1 µM / inhibition at 3 µM: Homo sapiens, PC-3, 72 h
Description: For comparison, the known G9a inhibitor UNC0638 (see structure in FIG. 1) was evaluated in this study concurrently.
Human PC3 cells (ATCC, Manassas, Va.) were grown in RPMI+10% Fetal Bovine Serum and plated at 5,000 cells per well in a 96-well plate. The following day compounds and DMSO controls were added in triplicate at the indicated concentrations. Cells were fixed following incubation at 37° C. for 72 hours with 10% formaldehyde and then permeabilized with 0.1% Triton X-100. Cells were then washed with PBS and blocked with 0.1% BSA/PBS solution. Mouse anti-H3K9me2 (1:200, AbCam #1220, Cambridge, Mass.) and rabbit anti-Histone H3 (1:500, Cell Signaling Technology #4499, Danvers, Mass.) primary antibodies in 0.3% BSA were then added together to each well and incubated overnight at 4° C. The following day cells were washed in PBS-T (PBS with 0.1% Tween) followed by addition of anti-mouse (IR800) and anti-rabbit (IR700) secondary antibodies (LI-COR Biosciences, Lincoln, Nebr.) and incubated for one hour at room temperature. Cells were then washed with PBS-T followed by PBS and liquid was removed from all wells. The plate was scanned using both the 700 nm (anti-rabbit detection) and 800 nm (anti-mouse detection) channels on the Odyssey Imaging System (LI-COR Biosciences, Lincoln, Nebr.). Data was quantified using the LI-COR imaging suite and graphed as % inhibition H3K9me2/total H3/well compared to DMSO control wells. Wells treated in triplicate were averaged for each indicated concentration and error bars represent the standard deviation (n=3).

[6] = Cytotoxicity, CellTiter Glo; format: cell-based; conditions: human, CAPO-ES1 cells, 7-day proliferation, neural crest derived lines

## COc1cc2c(cc1OCCCN1CCCC1)N=C(N)C21CCC1 [Example 7, 5′-methoxy-6′-(3-(pyrrolidin-1-yl)propoxy)spiro[cyclobutane-1,3′-indol]-2′-amine]
[1]
  IC50 at 12 day: > 10 µM
[2]
  IC50 at 7 day: > 10 µM
[3]
  IC50 at 5 day: > 10 µM
[4]
  IC50 at 5 day: > 10 µM
[5]
  IC50 at 7 day: > 10 µM
H3K9me2; 3 μM
  reduction of cellular levels of H3K9Me2: ~50%
H3K9me2; 0.03 uM
  H3K9me2 % inhibition, single well of triplicate: 15.08% and 10.18%
H3K9me2; 0.1 uM
  H3K9me2 % inhibition, single well of triplicate: 24.63% and 27.83%
H3K9me2; 0.3 uM
  H3K9me2 % inhibition, single well of triplicate: 34.47% and 40.35%
H3K9me2; 1 uM
  H3K9me2 % inhibition, single well of triplicate: 43.83% and 45.11%
H3K9me2; 3 uM
  H3K9me2 % inhibition, single well of triplicate: 47.77% and 48.92%
H3K9me2; 0.03 uM, n=3, read-out: H3K9me2 % inhibition, average
  inhibition at 0.03 µM: 12%
H3K9me2; 0.03 uM, read-out: H3K9me2 % inhibition, single well of triplicate
  inhibition at 0.03 µM: 10.8%
H3K9me2; 0.1 uM, n=3, read-out: H3K9me2 % inhibition, average
  inhibition at 0.1 µM: 24.3%
H3K9me2; 0.1 uM, read-out: H3K9me2 % inhibition, single well of triplicate
  inhibition at 0.1 µM: 20.6%
H3K9me2; 0.3 uM, n=3, read-out: H3K9me2 % inhibition, average
  inhibition at 0.3 µM: 37.1%
H3K9me2; 0.3 uM, read-out: H3K9me2 % inhibition, single well of triplicate
  inhibition at 0.3 µM: 36.6%
H3K9me2; 1 uM, n=3, read-out: H3K9me2 % inhibition, average
  inhibition at 1 µM: 44.4%
H3K9me2; 1 uM, read-out: H3K9me2 % inhibition, single well of triplicate
  inhibition at 1 µM: 44.2%
H3K9me2; 3 uM, n=3, read-out: H3K9me2 % inhibition, average
  inhibition at 3 µM: 47.5%
H3K9me2; 3 uM, read-out: H3K9me2 % inhibition, single well of triplicate
  inhibition at 3 µM: 45.9%
H3K9me2; similar conditions
  levels of total histone 3, H3K27Me3, H3K36Me2, H3K4me2, H3K4me3 and H3K9me3: unaltered
H3K9me2; versus no treatment
  cell viability as measured by total histone H3: No difference in cell viability
[6]
  IC50 at 7 day: > 10 µM
